Assay results from US5206234A, “Benzolactam analogs as antagonists of CCK” (priority 1991, dated 1993).

Key:
anxiety (mice) = test: Black/white exploration test (anxiolytic activity); assay type: in vivo, mouse (male DBA2)
Text: The black/white exploration test [Crawley et al. Pharmacology, Biochemistry and Behav. 13, 167 (1980)] is a simple animal model of anxiety. Rodents placed in a two compartment box which consists of a brightly lit, white painted side and a dimly lit, black painted side, display a marked preference for the black side of the apparatus. This behavior is caused by the aversive properties of the brightly lit, white painted section. Classical anxiolytic drugs [such as diazepam, see Crawley, supra] and novel anxiolytic drugs [such as 5HT3 antagonists, see Jones et al. Br. J. Pharm.
A. Naive male DBA2 mice (25-30) were housed on a reversed light/dark cycle and tested during the dark phase of the cycle under dim red light. The apparatus consisted of an open topped box (40 cm long×27 cm wide×27 cm high) divided into a small area (2/5) and a large area (3/5) by a partition that extended 20 cm above the walls. There was a 7.5×7.5 cm opening in the partition at floor level. The small compartment was painted black and the large compartment white. The floor of each compartment was marked into 9 cm squares. The white compartment was illuminated by a 100 W tungsten bulb 17 cm above the box and the black compartment by a similarly placed 60 W red bulb.
Animals that had been injected with drug or vehicle were placed individually into the centre of the white area and their behavior observed during a 5 minute period by remote video recording. Four behavioral parameters were recorded every minute: the number of exploratory rears in the white and black sections, the number of line crossings in the black and white sections, the number of transitions between the two sections and the time spent in the black and white sections. Animals were tested in treatment groups of 8-10 and vehicle controls were run on each test day. Data were analysed by ANOVA and Dunnetts test.

CCK receptor (Pancreas) = target: T1, CCK receptor (Pancreas) (Rattus norvegicus, UniProt P30551); test: CCK Receptor Binding (Pancreas), inhibition of 125I-CCK-33 binding; design: species or system rat (Male Sprague-Dawley); settings: for IC50: 125I-CCK-33, rat pancreas membranes; for Effect on the 125I-CCK receptor binding assay: added as protease inhibitors
T1 construct: The whole pancreas was dissected free of fat tissue and was homogenized; from tissue; host or cells: pancreas membranes of male Sprague-Dawley rats
T1 sequence (P30551 1-444): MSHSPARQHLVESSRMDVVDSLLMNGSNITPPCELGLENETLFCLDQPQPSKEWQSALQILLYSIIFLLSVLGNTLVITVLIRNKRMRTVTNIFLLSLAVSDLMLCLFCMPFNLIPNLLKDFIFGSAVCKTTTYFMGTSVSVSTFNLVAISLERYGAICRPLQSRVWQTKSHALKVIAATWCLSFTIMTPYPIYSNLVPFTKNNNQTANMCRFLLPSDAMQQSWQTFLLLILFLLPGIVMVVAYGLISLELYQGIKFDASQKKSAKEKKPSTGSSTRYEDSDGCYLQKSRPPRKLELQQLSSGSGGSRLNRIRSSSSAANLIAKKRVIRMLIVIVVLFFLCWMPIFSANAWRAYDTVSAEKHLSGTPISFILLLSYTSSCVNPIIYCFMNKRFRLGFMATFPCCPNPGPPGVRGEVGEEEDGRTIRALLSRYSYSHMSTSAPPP
Protocol: CCK-33 was radiolabeled with ^125 I-Bolton Hunter reagent (2000 Ci/mmole) as described by Sankara et al. (J. Biol. Chem. 254: 9349-9351, 1979). Receptor binding was performed according to Innis and Snyder (Proc. Natl. Acad. Sci. 77, 6917-6921, 1980) with the minor modification of adding the additional protease inhibitors, phenylmethane sulfonyl fluoride and o-phenanthroline. The latter two compounds have no effect on the ^125 I-CCK receptor binding assay.
Male Sprague-Dawley rats (200-350 g) were sacrificed by decapitation. The whole pancreas was dissected free of fat tissue and was homogenized in 20 volumes of ice-cold 50 mM Tris HCl (pH 7.7 at 25° C.) with a Brinkmann Polytron PT 10. The homogenates were centrifuged at 48,000 g for 10 min. Pellets were resuspended in Tris Buffer, centrifuged as above and resuspended in 200 volumes of binding assay buffer (50 mM Tris HCl, pH 7.7 at 25° C., 5 mM dithiothrietol, 0.1 mM bacitracin, 1.2 mM phenylmethane sulfonyl fluoride and 0.5 mM o-phenanthroline). […] All assays were run in duplicate or triplicate. The reaction mixtures were incubated at 37° C. for 30 minutes and centrifuged in a Beckman Microfuge (4 minutes) immediately after adding 1 ml of ice-cold incubation buffer. The supernatant was aspirated and discarded, pellets were counted with a Beckman gamma 5000. For Scatchard analysis (Ann. N.Y. Acad. Sci. 51: 660, 1949), ^125 I-CCK-33 was progressively diluted with increasing concentrations of CCK-33.
A Ki value (dissociation constant of inhibitor) of the compounds of Formula I was estimated.

[1] = target: T2, CCK receptor (Brain, cerebral cortex) (Cavia porcellus, UniProt H0VZC5); test: CCK Receptor Binding (Brain), inhibition of 125I-CCK-33 binding; design: species or system guinea pig (Male Hartley); settings: head prints ^25 I-CCK; guinea pig cerebral cortex
T2 construct: Cerebral cortex was dissected and used as a receptor source; from tissue; host or cells: cerebral cortex membranes of male Hartley guinea pigs
T2 sequence (H0VZC5 1-426): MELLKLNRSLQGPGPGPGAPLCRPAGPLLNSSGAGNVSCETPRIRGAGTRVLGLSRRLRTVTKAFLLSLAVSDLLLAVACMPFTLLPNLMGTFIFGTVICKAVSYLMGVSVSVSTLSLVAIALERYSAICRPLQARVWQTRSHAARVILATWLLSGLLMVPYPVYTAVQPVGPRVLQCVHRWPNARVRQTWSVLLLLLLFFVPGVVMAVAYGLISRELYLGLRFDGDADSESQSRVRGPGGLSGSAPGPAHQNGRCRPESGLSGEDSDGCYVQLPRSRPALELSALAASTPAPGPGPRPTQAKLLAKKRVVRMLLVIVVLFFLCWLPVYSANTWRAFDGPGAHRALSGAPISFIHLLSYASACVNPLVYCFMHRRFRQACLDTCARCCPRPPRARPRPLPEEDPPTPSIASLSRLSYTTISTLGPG
Protocol: CCK-33 was radiolabeled and the binding was performed according to the description for the pancreas method with modifications according to Saito et al., J. Neurochem. 37:483-490, 1981.
Male Hartley guinea pigs (300-500 g) were sacrificed by decapitation and the brains were removed and placed in ice-cold 50 mM Tris HCl plus 7.58 g/l Trizma-7.4 (pH 7.4 at 25° C.). Cerebral cortex was dissected and used as a receptor source. Each gram of fresh guinea pig brain tissue was homogenized in 10 ml of Tris/Trizma buffer with a Brinkman polytron PT-10. The homogenates were centrifuged at 42,000 g for 15 minutes. Pellets were resuspended in Tris Buffer, centrifuged as above and resuspended in 200 volumes of binding assay buffer (10 mM N-2-hydroxyethyl-piperazine-N'-2-ethane sulfonic acid (HEPES), 5 mM MgCl2, 0.25 mg/ml bacitracin, 1 mM ethylene glycol-bis-(β-aminoethylether-N,N'-tetraacetic acid) (EGTA), and 0.4% bovine serum albumin (BSA)). […] All assays were run in duplicate or triplicate. The reaction mixtures were incubated at 25° C. for 2 hours and centrifuged in a Beckman Microfuge (4 minutes) immediately after adding 1 ml of ice-cold incubation buffer. The supernatant was aspirated and discarded, pellets were counted with a Beckman gamma 5000.

[2] = target: T3, Gastrin receptor (Gastric Glands) (Cavia porcellus, UniProt H0VZC5); test: Gastrin Receptor Binding in Guinea Pig Gastric Glands; design: species or system guinea pig (male Hartley); settings: head prints ^25 I-Gastrin, read-out: Receptor binding IC50, 125I-Gastrin Gastric Glands
T3 construct: from tissue; host or cells: gastric mucosal glands of male Hartley guinea pigs
T3 sequence (H0VZC5 1-426): T2 sequence (H0VZC5 1-426)
Protocol: Guinea pig gastric mucosal glands were prepared by the procedure of Berglingh and Obrink Acta Physiol. Scand. 96: 150 (1976) with a slight modification according to Praissman et al. C. J. Receptor Res. 3: (1983). Gastric mucosa from guinea pigs (300-500 g body weight, male Hartley) were washed thoroughly and minced with fine scissors in standard buffer consisting of the following: 130 mM NaCl, 12 mM NaHCO3, 3 mM NaH2 PO4, 3 mM Na2 HPO4, 3 mM K2 HPO4, 2 mM MgSO4, 1 mM CaCl2, 5 mM glucose and 4 mM L-glutamine, 25 mM HEPES at pH 7.4. The minced tissues were washed and then incubated in a 37° C. shaker bath for 40 minutes with the buffer containing 0.1% collagenase and 0.1% BSA and bubbled with 95% O2 and 5% CO2. The tissues were passed twice through a 5 ml glass syringe to liberate the gastric glands, and then filtered through 200 mesh nylon. The filtered glands were centrifuged at 270 g for 5 minutes and washed twice by resuspension and centrifugation.
The washed guinea pig gastric glands prepared as above were resuspended in 25 ml of standard buffer containing 0.25 mg/ml of bacitracin. For binding studies, to 220 μl of gastric glands in triplicate tubes, 10 μl of buffer (for total binding) or gastrin (1 μM final concentration, for nonspecific binding) or test compound and 10 μl of ^125 I-gastrin (NEN, 2200 Ci/mmole, 25 pM final) or ^3 H-pentagastrin (NEN 22 Ci/mmole, 1 nM final) were added. The tubes were aerated with 95% O2 and 5% CO2 and capped. The reaction mixtures after incubation at 25° C. for 30 minutes were filtered under reduced pressure on glass G/F B filters (Whatman) and immediately washed further with 4×4 ml of standard buffer containing 0.1% BSA. The radioactivity on the filters was measured using a Beckman gamma 5500 for ^125 I-gastrin or liquid scintillation counting for ^3 H-pentagastrin.

| Compound | IC50 (CCK receptor (Pancreas)) | IC50 [1] | other results |
| --- | --- | --- | --- |
| Cc1cccc(NC(=O)N[C@@H]2N=C(c3ccccc3)c3ccccc3N(C)C2=O)c1 [Compound B, (R)-N-(2,3-dihydro-1-methyl-2-oxo-5-phenyl-1H-1,4-benzodiazepin-3-yl)-N'-(3-methylphenyl)urea] | – | – | Difference in time spent in the black and white side (anxiety (mice); 0.005 ug/kg): decreased the difference in time spent in the black and white side; Preference for rearing in the black side (anxiety (mice); 0.05 ug/kg): abolished the preference for rearing in the black side; Active dose range (anxiety (mice); black/white exploration test, mice): 0.005 to 0.05 µg/kg |
| COc1cccc(NC(=O)NC2CCc3ccccc3N(CC(=O)OC(C)(C)C)C2=O)c1 (centres unmarked) [Example 2] | 14000 nM | – | – |
| COc1cccc(NC(=O)NC2CCc3ccccc3N(CC(=O)O)C2=O)c1 (centres unmarked) [Example 3] | 2100 nM | 8.6 µM | IC50 [2]: 3100 nM |
| Cc1cccc(NC(=O)NC2CCc3ccccc3N(CC(=O)N3CCN(C)CC3)C2=O)c1 (centres unmarked) [Example 7, 1-Methyl-4-{[2,3,4,5-tetrahydro-3-{[[(3-methylphenyl)amino]carbonyl]amino}-2-oxo-1H-1-benzazepin-1-yl]aceyl}piperazine] | 970 nM | 5 µM | IC50 [2]: 610 nM |
| O=C(O)CN1C(=O)C(NC(=O)Nc2cccc3ccccc23)CCc2ccccc21 (centres unmarked) [Example 9, 2,3,4,5-Tetrahydro-3-{[[(1-naphthalenyl)amino]carbonyl]amino}-2-oxo-1H-1-benzazepine-1-acetic acid] | 20000 nM | – | – |
| CN1CCN(C(=O)CN2C(=O)C(NC(=O)Nc3cccc4ccccc34)CCc3ccccc32)CC1 (centres unmarked) [Example 10, 1-Methyl-4-{[2,3,4,5-tetra-hydro-3-{[[(1-naphthalenyl)amino]carbonyl]amino}-2-oxo-1H-1-benzazepin-1-yl]acetyl}piperazine] | 32000 nM | – | – |
| Cc1ccc(NC(=O)NC2CCc3ccccc3N(CC(=O)N3CCCC3)C2=O)cc1 (centres unmarked) [Example 13, 1-{[2,3,4,5-Tetrahydro-3-{[[(4-methylphenyl)amino]carbonyl]amino}-2-oxo-1H-1-benzazepin-1-yl]aceyl}pyrrolidine] | 1600 nM | – | – |
| Cc1ccc(NC(=O)NC2CCc3ccccc3N(CC(=O)N3CCN(C)CC3)C2=O)cc1 (centres unmarked) [Example 14, 1-Methyl-4-{[2,3,4,5-tetra-hydro-3-{[[(4-methylphenyl)amino}carbonyl]amino}-2-oxo-1H-1-benzazepin-1-yl]acetyl}piperazine] | 13000 nM | 77 µM | – |
| c1cnc2c(c1)ccc1cccnc12 [o-phenanthroline, reference compound] | – | – | Effect on the 125I-CCK receptor binding assay (CCK receptor (Pancreas)): no effect |
| O=S(=O)(F)Cc1ccccc1 [phenylmethane sulfonyl fluoride, reference compound] | – | – | Effect on the 125I-CCK receptor binding assay (CCK receptor (Pancreas)): no effect |

Now from value to compound, other results behind:

| IC50 (CCK receptor (Pancreas)) | IC50 [1] | Compound | other results |
| --- | --- | --- | --- |
| 350 nM | 0.18 µM | CC(C)(C)OC(=O)CN1C(=O)C(NC(=O)Nc2ccc(Cl)cc2)CCc2ccccc21 (centres unmarked) [Example 1, 1,1-Dimethylethyl 3-{[[(4-chlorophenyl)amino]carbonyl]amino}-2,3,4,5-tetrahydro-2-oxo-1H-1-benzazepine-1-acetic acid ester] | IC50 [2]: 120 nM |
| 12 nM | – | Cc1cccc(NC(=O)NC2CCc3ccccc3N(CC(=O)OC(C)(C)C)C2=O)c1 (centres unmarked) [Example 4] | – |
| 940 nM | – | Cc1cccc(NC(=O)NC2CCc3ccccc3N(CC(=O)O)C2=O)c1 (centres unmarked) [Example 5, 2,3,4,5-Tetrahydro-3-{[[(3-methylphenyl)aminol]carbonyl]amino}-2-oxo-1H-1-benzazepine-1-acetic acid] | – |
| 80 nM | – | Cc1cccc(NC(=O)NC2CCc3ccccc3N(CC(=O)N3CCCC3)C2=O)c1 (centres unmarked) [Example 6, 1-{[2,3,4,5-Tetrahydro-3-{[[(3-methylphenyl)amino]carbonyl]amino}-2-oxo-1H-1-benzazepin-1-yl]acetyl}pyrrolidine] | – |
| 960 nM | 0.148 µM | CC(C)(C)OC(=O)CN1C(=O)C(NC(=O)Nc2cccc3ccccc23)CCc2ccccc21 (centres unmarked) [Example 8] | IC50 [2]: 480 nM |
